Measured values taken from ChEMBL document CHEMBL1201862, “PubChem BioAssay data set” (2004).
The source made the active and inactive calls.

Experiments:
[1] = target: DNA repair and recombination protein RAD54-like (Homo sapiens, UniProt Q92698); assay: inhibitors of human RAD54 branch migration, confirmation, biochemical, fluorescence, cherry-picked samples, dose series (AID 651657); assay type: functional
[2] = system: Jurkat; assay: SAR Analysis of small molecule inhibitors of […] specific antigen receptor-induced NF-kB activation in a Jurkat cell line using a luminescence assay - Set 3. [Related pubchem assays (depositor defined):AID435022, AID435025, AID465]; assay type: functional, cell-based; conditions: Homo sapiens
[3] = system: HEK293; assay: SAR Analysis of small molecule inhibitors of B-cell specific antigen receptor-induced NF-kB activation in a HEK-293T cell line using a luminescence assay - Set 2. [Related pubchem assays (depositor defined):AID435022, AID435025, AID489021]; assay type: functional, cell-based; conditions: Homo sapiens
[4] = system: HEK293; assay: cytotoxicity in HEK293T NF-kB-Luc cells, SAR follow-up, cytotoxicity control for NF-kB activator project, cell-based, resazurin fluorescence (AID 493251); assay type: functional; conditions: Homo sapiens
[5] = target: T1, Dual specificity protein phosphatase 3 (Homo sapiens, UniProt P51452); assay: SAR VHR1 Fluorescent Assay for In Vitro dose response studies Set 3. [Related pubchem assays (depositor defined):AID1654, AID1661, AID1878]; assay type: functional
T1 sequence (P51452 whole entry): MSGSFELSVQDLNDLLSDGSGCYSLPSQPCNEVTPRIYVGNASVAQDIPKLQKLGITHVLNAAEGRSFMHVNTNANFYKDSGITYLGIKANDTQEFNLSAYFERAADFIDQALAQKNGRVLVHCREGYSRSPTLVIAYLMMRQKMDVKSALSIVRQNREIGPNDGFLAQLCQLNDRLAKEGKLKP

[6] = target: Tyrosine-protein phosphatase non-receptor type 11 (Homo sapiens, UniProt Q06124); assay: SHP2 phosphatase inhibition, dose response, selectivity assay for STEP inhibitor project, biochemical (AID 602367); assay type: functional; conditions: read-out: IC50_Mean
[7] = target: Tyrosine-protein phosphatase non-receptor type 5 (Homo sapiens, UniProt P54829); assay: STEP phosphatase inhibitors, confirmation, biochemical, fluorescence intensity, uHTS hits (AID 602372); assay type: functional; conditions: read-out: IC50_Mean
Tyrosine-protein phosphatase non-receptor type 5, sequence (P54829 whole entry): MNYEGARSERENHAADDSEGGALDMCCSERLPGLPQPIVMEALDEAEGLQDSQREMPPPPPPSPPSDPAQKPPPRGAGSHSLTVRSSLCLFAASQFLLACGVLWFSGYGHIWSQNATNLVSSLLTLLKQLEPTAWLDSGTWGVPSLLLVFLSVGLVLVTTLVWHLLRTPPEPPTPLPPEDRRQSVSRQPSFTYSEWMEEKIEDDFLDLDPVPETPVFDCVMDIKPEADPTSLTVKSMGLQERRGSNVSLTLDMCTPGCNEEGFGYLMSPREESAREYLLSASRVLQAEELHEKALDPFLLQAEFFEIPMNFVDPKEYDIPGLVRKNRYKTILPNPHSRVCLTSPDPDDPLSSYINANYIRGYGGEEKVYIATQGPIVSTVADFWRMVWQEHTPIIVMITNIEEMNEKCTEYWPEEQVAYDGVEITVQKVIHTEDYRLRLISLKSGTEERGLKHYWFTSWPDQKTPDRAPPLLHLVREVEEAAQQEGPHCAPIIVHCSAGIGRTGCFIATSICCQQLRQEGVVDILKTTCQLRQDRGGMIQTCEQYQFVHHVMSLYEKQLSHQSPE

[8] = target: T1, Dual specificity protein phosphatase 3; assay: VHR phosphatase inhibition, dose response, selectivity assay for STEP inhibitor project, biochemical (AID 602374); assay type: functional; conditions: read-out: IC50_Mean
[9] = target: T2, Mitochondrial peptide methionine sulfoxide reductase (Bos taurus, UniProt P54149); assay type: functional;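 further: absorbance read-out, biochemical high-throughput dose-response screen for MsrA inhibitors, confirmatory; recombinant bovine MsrA coupled to E. coli TrxB with NADPH and selenocystamine; potency is for inhibitors of MsrA activity on DMSO substrate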
T2 sequence (P54149 whole entry): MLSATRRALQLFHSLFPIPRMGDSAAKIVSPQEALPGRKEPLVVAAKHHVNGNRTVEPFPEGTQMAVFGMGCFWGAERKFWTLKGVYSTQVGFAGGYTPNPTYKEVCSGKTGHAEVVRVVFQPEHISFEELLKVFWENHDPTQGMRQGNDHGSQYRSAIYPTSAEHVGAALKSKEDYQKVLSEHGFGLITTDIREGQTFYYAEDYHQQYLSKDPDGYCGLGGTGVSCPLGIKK

[10] = target: Serine/threonine-protein kinase pim-1 (Homo sapiens, UniProt P11309); assay type: functional
[11] = target: Cell division cycle 7-related protein kinase (Homo sapiens, UniProt O00311); assay type: functional;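 further: value obtained from a kinome-wide kinase panel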
[12] = target: Homeodomain-interacting protein kinase 2 (Homo sapiens, UniProt Q9H2X6); assay type: functional;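 further: measured within a kinome-wide kinase profiling panel, HIPK2 being one panel member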
Homeodomain-interacting protein kinase 2, sequence (Q9H2X6 whole entry): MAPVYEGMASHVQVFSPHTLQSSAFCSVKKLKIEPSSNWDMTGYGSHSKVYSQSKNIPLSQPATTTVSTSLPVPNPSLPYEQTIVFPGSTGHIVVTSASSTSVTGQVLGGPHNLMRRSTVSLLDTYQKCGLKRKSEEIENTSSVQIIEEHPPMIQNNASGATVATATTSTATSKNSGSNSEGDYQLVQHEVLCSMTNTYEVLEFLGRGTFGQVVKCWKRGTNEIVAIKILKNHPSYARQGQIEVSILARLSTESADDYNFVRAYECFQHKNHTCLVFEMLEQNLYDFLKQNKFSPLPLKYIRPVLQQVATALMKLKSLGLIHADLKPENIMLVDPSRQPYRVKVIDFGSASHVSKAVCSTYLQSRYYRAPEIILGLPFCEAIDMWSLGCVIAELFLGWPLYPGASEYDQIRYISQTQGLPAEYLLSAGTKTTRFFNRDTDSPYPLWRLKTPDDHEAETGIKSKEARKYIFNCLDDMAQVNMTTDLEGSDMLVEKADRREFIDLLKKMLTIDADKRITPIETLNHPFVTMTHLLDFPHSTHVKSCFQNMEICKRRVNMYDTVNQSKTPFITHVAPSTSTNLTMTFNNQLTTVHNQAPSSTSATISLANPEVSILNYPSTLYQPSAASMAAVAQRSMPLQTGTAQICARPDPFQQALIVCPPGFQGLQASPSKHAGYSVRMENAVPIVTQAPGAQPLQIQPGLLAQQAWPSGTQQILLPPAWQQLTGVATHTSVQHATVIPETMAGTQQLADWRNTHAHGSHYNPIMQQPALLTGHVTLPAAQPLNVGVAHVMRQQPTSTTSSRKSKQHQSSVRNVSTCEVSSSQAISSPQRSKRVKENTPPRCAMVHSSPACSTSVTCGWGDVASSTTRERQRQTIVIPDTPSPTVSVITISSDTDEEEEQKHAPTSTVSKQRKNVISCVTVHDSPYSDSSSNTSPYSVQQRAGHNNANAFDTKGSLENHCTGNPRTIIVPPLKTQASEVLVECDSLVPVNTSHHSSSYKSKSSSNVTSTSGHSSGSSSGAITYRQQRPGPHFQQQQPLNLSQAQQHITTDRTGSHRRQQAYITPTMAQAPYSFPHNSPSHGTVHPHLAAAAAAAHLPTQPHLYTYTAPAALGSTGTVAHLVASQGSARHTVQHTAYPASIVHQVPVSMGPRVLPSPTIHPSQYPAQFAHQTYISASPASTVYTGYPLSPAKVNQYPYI

[13] = target: Interleukin-1 receptor-associated kinase 4 (Homo sapiens, UniProt Q9NWZ3); assay type: functional
[14] = target: Glycogen synthase kinase-3 beta (Homo sapiens, UniProt P49841); assay type: functional;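 further: value comes from a broad kinome profiling panel, with GSK3B as the panel member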
Glycogen synthase kinase-3 beta, sequence (P49841 whole entry): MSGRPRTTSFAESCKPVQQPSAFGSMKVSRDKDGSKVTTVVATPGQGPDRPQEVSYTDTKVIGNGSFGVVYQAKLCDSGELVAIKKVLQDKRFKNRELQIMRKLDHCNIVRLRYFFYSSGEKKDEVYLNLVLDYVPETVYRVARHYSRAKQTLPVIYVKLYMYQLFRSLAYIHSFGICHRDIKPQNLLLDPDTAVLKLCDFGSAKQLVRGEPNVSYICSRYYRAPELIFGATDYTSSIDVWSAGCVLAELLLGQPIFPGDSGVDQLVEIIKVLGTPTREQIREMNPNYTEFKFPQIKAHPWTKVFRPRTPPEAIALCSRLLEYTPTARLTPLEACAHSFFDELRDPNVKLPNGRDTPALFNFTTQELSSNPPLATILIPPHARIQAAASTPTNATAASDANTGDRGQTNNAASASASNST

[15] = target: cAMP-dependent protein kinase catalytic subunit alpha (Homo sapiens, UniProt P17612); assay type: functional
[16] = target: Dual specificity protein kinase CLK4 (Homo sapiens, UniProt Q9HAZ1); assay type: functional
Dual specificity protein kinase CLK4, sequence (Q9HAZ1 whole entry): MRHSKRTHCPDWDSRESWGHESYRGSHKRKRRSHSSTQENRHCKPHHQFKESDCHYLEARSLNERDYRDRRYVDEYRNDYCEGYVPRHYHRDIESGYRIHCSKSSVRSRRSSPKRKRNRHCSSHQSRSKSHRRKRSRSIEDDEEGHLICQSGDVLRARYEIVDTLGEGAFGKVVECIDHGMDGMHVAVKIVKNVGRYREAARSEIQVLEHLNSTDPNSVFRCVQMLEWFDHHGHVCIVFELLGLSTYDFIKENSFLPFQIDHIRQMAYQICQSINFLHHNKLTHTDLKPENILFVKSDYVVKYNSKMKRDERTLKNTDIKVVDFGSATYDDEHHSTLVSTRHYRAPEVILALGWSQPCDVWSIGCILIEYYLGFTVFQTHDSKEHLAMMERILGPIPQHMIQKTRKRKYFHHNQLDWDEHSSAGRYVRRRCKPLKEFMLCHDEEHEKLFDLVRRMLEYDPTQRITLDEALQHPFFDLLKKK

[17] = target: T3, Methionyl-tRNA synthetase, putative (Trypanosoma brucei brucei, UniProt Q38C91); assay type: functional, Trypanosoma brucei brucei strain 927/4 GUTat10.1
T3 sequence (Q38C91 whole entry): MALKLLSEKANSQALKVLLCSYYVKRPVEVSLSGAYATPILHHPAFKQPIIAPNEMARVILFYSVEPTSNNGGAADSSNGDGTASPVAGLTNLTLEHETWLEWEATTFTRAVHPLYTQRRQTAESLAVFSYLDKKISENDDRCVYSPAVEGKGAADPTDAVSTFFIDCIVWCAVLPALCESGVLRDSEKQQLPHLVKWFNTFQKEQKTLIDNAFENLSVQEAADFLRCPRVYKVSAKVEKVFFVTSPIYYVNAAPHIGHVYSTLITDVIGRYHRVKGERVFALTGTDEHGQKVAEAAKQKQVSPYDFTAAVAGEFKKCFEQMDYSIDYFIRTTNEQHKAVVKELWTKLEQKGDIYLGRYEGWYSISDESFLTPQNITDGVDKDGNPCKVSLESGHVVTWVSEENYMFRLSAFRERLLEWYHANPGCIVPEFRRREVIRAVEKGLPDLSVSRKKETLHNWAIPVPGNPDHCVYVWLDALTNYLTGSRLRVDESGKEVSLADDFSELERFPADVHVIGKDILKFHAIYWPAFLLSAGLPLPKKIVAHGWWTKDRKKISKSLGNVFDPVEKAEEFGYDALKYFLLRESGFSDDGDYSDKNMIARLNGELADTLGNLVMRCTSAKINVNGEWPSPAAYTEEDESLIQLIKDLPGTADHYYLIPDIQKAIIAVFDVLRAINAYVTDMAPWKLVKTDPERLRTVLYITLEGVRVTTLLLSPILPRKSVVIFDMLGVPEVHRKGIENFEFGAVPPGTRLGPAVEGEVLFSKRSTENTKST

[18] = Counterscreen for inhibitors of Trypanosoma brucei methionyl tRNA synthetase (MetRS): Luminescence-based cell-based high throughput dose response assay to identify compounds that are cytotoxic to Jurkat human T lymphocyte cells.; assay type: functional
[19] = target: T3, Methionyl-tRNA synthetase, putative; assay type: functional, Trypanosoma brucei brucei strain 927/4 GUTat10.1; remark: listed apart in the source
[20] = target: Adenosylmethionine-8-amino-7-oxononanoate aminotransferase (Mycobacterium tuberculosis, UniProt P9WQ81); assay: Mycobacterium tuberculosis BioA enzyme inhibitor Measured in Biochemical System Using Plate Reader - 2163-02_Inhibitor_Dose_CherryPick_Activity.; assay type: functional, Mycobacterium tuberculosis UT205
Adenosylmethionine-8-amino-7-oxononanoate aminotransferase, sequence (P9WQ81 whole entry): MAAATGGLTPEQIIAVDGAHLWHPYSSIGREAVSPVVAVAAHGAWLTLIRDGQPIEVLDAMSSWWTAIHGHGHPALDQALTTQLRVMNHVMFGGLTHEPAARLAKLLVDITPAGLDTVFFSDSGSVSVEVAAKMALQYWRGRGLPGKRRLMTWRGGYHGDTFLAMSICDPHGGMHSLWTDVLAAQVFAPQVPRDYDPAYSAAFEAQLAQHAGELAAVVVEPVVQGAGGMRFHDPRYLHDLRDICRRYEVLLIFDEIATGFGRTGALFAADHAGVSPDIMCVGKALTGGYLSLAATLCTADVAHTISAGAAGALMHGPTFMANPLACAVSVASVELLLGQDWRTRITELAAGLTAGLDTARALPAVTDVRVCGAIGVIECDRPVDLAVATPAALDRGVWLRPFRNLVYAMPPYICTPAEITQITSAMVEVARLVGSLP

[21] = target: ADP-ribosylation factor GTPase-activating protein 1 (Rattus norvegicus, UniProt Q62848); assay: Fluorescence polarization-based biochemical high throughput dose response screening assay to identify inhibitors of ADP-ribosylation factor GTPase activating protein 1 (ARFGAP1).; assay type: functional
[22] = system: A-375; assay: MITF: Counter assay: A375 proliferation Measured in Cell-Based System Using Plate Reader - 2084-03_Inhibitor_Dose_DryPowder_Activity. [Related pubchem assays (depositor defined):AID488944]; assay type: functional; conditions: Homo sapiens
[23] = system: A-375; assay: A375 melanoma cell viability reduction, dose response, counter-screen for MITF modulator project, cherry-pick samples, set 2 (AID 540335); assay type: functional, cell-based; conditions: Homo sapiens

DNA repair and recombination protein RAD54-like, sequence (Q92698 whole entry): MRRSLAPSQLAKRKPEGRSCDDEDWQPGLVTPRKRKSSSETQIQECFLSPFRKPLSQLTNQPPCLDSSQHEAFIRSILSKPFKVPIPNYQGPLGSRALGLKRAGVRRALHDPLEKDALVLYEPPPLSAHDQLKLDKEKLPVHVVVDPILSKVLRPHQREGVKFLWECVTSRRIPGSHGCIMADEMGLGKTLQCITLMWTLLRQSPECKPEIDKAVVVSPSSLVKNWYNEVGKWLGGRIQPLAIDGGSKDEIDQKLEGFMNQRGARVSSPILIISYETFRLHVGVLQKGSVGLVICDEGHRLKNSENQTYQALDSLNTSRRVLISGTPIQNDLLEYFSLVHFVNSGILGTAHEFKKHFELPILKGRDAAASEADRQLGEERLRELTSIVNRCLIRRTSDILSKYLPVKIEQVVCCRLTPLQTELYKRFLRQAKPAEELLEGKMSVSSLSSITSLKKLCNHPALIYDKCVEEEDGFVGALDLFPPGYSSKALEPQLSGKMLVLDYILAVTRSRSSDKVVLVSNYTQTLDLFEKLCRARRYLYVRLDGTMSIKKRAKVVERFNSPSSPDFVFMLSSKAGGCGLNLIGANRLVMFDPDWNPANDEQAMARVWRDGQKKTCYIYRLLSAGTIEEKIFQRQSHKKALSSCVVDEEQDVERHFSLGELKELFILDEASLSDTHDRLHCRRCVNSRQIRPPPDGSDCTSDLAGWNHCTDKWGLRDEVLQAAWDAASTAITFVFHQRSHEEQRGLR

Question: Which AC50 [1] does the source give for `O=C(COc1ccc2c(c1)oc(=O)c1ccccc12)NCCCN1CCOCC1` here?
Answer: 29.9 µM (active)

Question: Which results are given for `CCOc1ccc(-c2nc(CSCC(=O)N3CCC(C)CC3)c(C)o2)cc1`?
Answer: IC50 [2]: 32.6 µM (inactive); IC50 [3]: 9.87 µM (active); IC50 [4]: 30 µM (inactive)

Question: With `CC(C)(C)c1ccc(-c2noc(CCC(=O)N3CCCCC3)n2)cc1` as the compound, how does the IC50 [2] read?
Answer: 11.6 µM (active)

Question: And the IC50 [3]?
Answer: 17.4 µM (active)

Question: And the IC50 [4]?
Answer: 39.7 µM (inactive)

Question: Which IC50 [5] does the source give for `COc1ccc(C(=O)NNc2nc3c(OC)cccc3s2)cc1` here?
Answer: > 66 µM (inactive)

Question: For `O=C(N/N=C/c1cccc(Br)c1)c1ccc(N2CCCC2=O)cc1`, which IC50 [6] is on record?
Answer: 7.26 µM (active)

Question: And the IC50 [7]?
Answer: 11.7 µM (active)

Question: And the IC50 [8]?
Answer: 7.56 µM (active)

Question: With `C/C(=N\Nc1ccc(S(N)(=O)=O)cc1[N+](=O)[O-])c1ccc2c(c1)OCO2` as the compound, how does the IC50 [9] read?
Answer: 155 µM (inactive)

Question: With `O=[N+]([O-])c1cccc(-c2nnc3ccc(N4CCCCC4)nn23)c1` as the compound, how does the Ki [10] read?
Answer: 0.0316 µM (active)

Question: What about the Ki [11] of the same compound?
Answer: 0.00631 µM (active)

Question: And the Ki [12]?
Answer: 0.0126 µM (active)

Question: And the Ki [13]?
Answer: 10 µM (active)

Question: What about the Ki [14] of the same compound?
Answer: 0.0398 µM (active)

Question: And the Ki [15]?
Answer: > 7.94 µM (inactive)

Question: And the Ki [16]?
Answer: 0.01 µM (active)

Question: Which IC50 [17] does the source give for `Cc1c(NS(=O)(=O)c2cccc(C(=O)NCc3cccc(Cl)c3)c2)c(=O)n(-c2ccccc2)n1C` here?
Answer: 119 µM (inactive)

Question: What about the IC50 [18] of the same compound?
Answer: 83.3 µM (inactive)

Question: What about the IC50 [19] of the same compound?
Answer: 21.7 µM (inactive)

Question: Which AC50 [20] does the source give for `COc1cccc(NC(=O)N2C[C@H](O)COC[C@@H]3O[C@@H](CC(=O)N(C)C)CC[C@H]32)c1` here?
Answer: 0.596 µM (active)

Question: For `CC1CC(C)CN(C(=O)COC(=O)c2cn(C)c3ccccc23)C1` (stereo unspecified), which IC50 [21] is on record?
Answer: 28.4 µM (inactive)

Question: With `CN(C)c1ccc(/C=N/N2CCN(c3ccccn3)CC2)cc1` as the compound, how does the AC50 [22] read?
Answer: > 35 µM (active)

Question: And the AC50 [23]?
Answer: > 35 µM (active)
